{"source": "patent US7595300B2", "about": "“7-quinolyl ketolide antibacterial agents” (priority 2005, dated 2009)", "key": {"male beagle dogs": {"system": "male beagle dogs", "experiment": "Cardiovascular safety in telemetered dogs, intravenous infusion", "format": "in vivo, dog", "text": "Four male beagle dogs, obtained from Marshall Farms USA, Inc. (North Rose, N.Y.), were surgically instrumented with telemetry transducers (Data Sciences International, type RL11M2-D70-PCT) to assess arterial blood pressure (ABP) and lead II electrocardiogram (ECG) parameters.\nThe dosing route was an intravenous infusion jugular vein access). The infusion was accomplished using a CADD Prizm® ambulatory infusion pump attached to a jacket worn by the dog. The dose duration for the intravenous infusion was 30 min for all doses administered, except the last dose (30 mg/kg) where the infusion period was extended to 45 min to accommodate the larger dose volume required for this dose. The vehicle dose and diluent for the test article was 0.05-M sodium citrate in sterile water for injection.\nThere was one treatment group of four non-naïve dogs and the study was comprised of both pharmacokinetic and telemetry phases, as summarized in the dose administration table for compound (III) (Table 16) below. At least one week was given between dosings to allow clearance of the drug.\nFor the telemetry phase of the study, collection of hemodynamic and lead II ECG data commenced approximately 30 min prior to dosing and ended approximately 6 h post-dose. Systolic blood pressure (SBP), diastolic blood pressure (DBP), HR, and lead II ECG variables (PR interval, QRS duration, RR interval, and QT interval) were acquired continuously from each animal during each dose day recording session. The QT interval was corrected for variations in HR using the Fridericia's QTc interval (QTcF).\nData acquired following treatment with vehicle or compound (III) were extracted at −10, −5, 0, 10, 20, 30, 35, 45, 60, 90, 150, 270, and 390 min relative to the start dose time. For all blood pressure and ECG parameters, data following treatment with compound (III) were compared to the time-matched vehicle dose data. Statistical comparisons were made using a one-way ANOVA for repeated measures, followed by the Dunnett's post-hoc test when statistical significance was detected with the ANOVA. Changes were considered statistically significant when p<0.05.\nA complete visual scan of the ECG waveforms from the vehicle, 11 mg/kg dose, and 15 mg/kg dose of compound (III) was conducted. All waveforms were examined for gross changes in waveform morphology and arrhythmogenesis."}, "P. granulosum": {"system": "P. granulosum", "experiment": "MIC, NCCLS Reference Agar Dilution Method for anaerobic bacteria", "format": "cell-based, Propionibacterium granulosum", "procedure": "Minimum inhibitory concentrations (“MICs”) were determined by the NCCLS Reference Agar Dilution Method (M11-A5, Vol. 21, No. 2) for anaerobic bacteria. A panel of 84 antibiotic-susceptible and resistant strains of Propionibacteria from distinct geographic locations were selected. Following revival from frozen stocks, each strain was purity plated onto Wilkins Chalgren Agar, pH 7.2 (Oxoid, UK), and the appropriate antibiotic resistance/susceptibility phenotype was confirmed by antibiotic disc testing. Each strain was subjected to an agar dilution MIC assay. […] The inocula for each batch of strains were prepared from 7-day old Wilkins Chalgren Agar plate cultures by resuspension of colonies in Wilkins Chalgren Anaerobe broth, pH 7.2 (Oxoid, UK) to an optical density (OD600) of 0.2±0.02. The inoculum (1.0-2.0 μL) for each strain was applied to a Wilkins Chalgren Agar MIC plate in a grid pattern using a Multipoint Inoculator (Denley, UK). All agar plates were incubated at 37° C. for 3 days under anaerobic conditions in AnaeroPack 7 liter rectangular jars (Mitsubishi Gas Chemical Company, Inc., Japan)."}, "[1]": {"details": "dog, intravenous 11 and 15 mg/kg"}}, "data": [{"molecule": "CC1CC(N(C)C)C(O)C(O[C@@H]2[C@@H](C)C(=O)[C@](C)(F)C(=O)O[C@H](CCF)[C@@]3(C)OC(=O)N[C@@H]3[C@@H](C)C(=O)[C@H](C)C[C@@]2(C)OC/C=C/c2ccc3cccnc3c2)O1", "note": "(some centres unmarked) [Compound (III), 6-O-(1-(7-quinolyl)-3-propenyl)-11-amino-11-deoxy-3-(descladinosyl)-3-oxo-2,15-difluoroerythromycin A-11,12-cyclic carbamate]", "values": [{"measurement": "effect on mean HR", "setting": "male beagle dogs; dog, intravenous 11 mg/kg", "result": "no effect"}, {"measurement": "effect on the QRS duration", "setting": "male beagle dogs; dog, intravenous 11 mg/kg", "result": "no effect"}, {"measurement": "effect on mean HR", "setting": "male beagle dogs; dog, intravenous 15 mg/kg, at the 90 and 390 time points", "result": "Significant (p<0.05) decreases in mean HR"}, {"measurement": "effect on QTcF", "setting": "male beagle dogs; dog, intravenous 30 mg/kg, 35 to 90 min postdose, vs time-matched vehicle", "result": "lengthening of the QTcF interval"}, {"measurement": "effect on the PR interval", "setting": "male beagle dogs; dog, intravenous 30 mg/kg, 150 to 390 min, p<0.05 at 390 min", "result": "increase in the PR interval"}, {"measurement": "effect on HR", "setting": "male beagle dogs; dog, intravenous 30 mg/kg, 390 min postdose", "result": "statistically significant (p<0.05) reduction in the HR"}, {"measurement": "ABP parameters (SBP, DBP, MAP)", "setting": "male beagle dogs; dog, intravenous 11, 15, and 30 mg/kg, during and up to 150 min after infusion", "result": "remained relatively unchanged"}, {"measurement": "effect on the QT interval relative to the vehicle control", "setting": "male beagle dogs; dog, intravenous 11, 15, or 30 mg/kg", "result": "no significant effects"}, {"measurement": "effect on QTcF", "setting": "male beagle dogs; [1]", "result": "no significant effects"}, {"measurement": "effect on the PR interval", "setting": "male beagle dogs; [1]", "result": "No significant effects"}, {"measurement": "waveform morphology or ECG rhythm", "setting": "male beagle dogs; dog, intravenous 11 or 15 mg/kg", "result": "no abnormalities"}, {"measurement": "effect on the QRS duration", "setting": "male beagle dogs; dog, intravenous 15 and 30 mg/kg, pre-drug baseline also lower", "result": "Significant (p<0.05) decreases in QRS duration"}, {"measurement": "RR interval", "setting": "male beagle dogs; dog, intravenous, study period", "result": "remained relatively unchanged"}, {"measurement": "heart rate-corrected QT interval (QTc), FIG. 6", "setting": "male beagle dogs; male beagle dogs, intravenous infusion 11 mg/kg or 15.8 mg/kg over 30 minutes", "result": "No significant increase in QTc"}, {"measurement": "effect relative to vehicle", "setting": "male beagle dogs; telemetered dogs, 30 mg/kg", "result": "no significant effect"}, {"measurement": "effects on cardiac parameters, including QT interval", "setting": "male beagle dogs; telemetered dogs, intravenous infusion up to 15 mg/kg", "result": "no effects"}, {"measurement": "MIC range", "setting": "P. granulosum; marker RNA 2058, phenotype EryR", "result": 8, "unit": "µg/mL"}, {"measurement": "MIC range", "setting": "P. granulosum; marker RNA 2059, phenotype EryR", "result": "0.125 to 2", "unit": "µg/mL"}, {"measurement": "MIC range", "setting": "P. granulosum; marker ermX, phenotype EryR", "result": "4 to 32", "unit": "µg/mL"}, {"measurement": "MIC range", "setting": "P. granulosum; marker none, phenotype none", "result": 0.06, "unit": "µg/mL"}]}]}
